The target of experiment [1] is T1, serotonin receptors from calf hippocampus (Bos taurus, UniProt F6Q2H9).
T1 construct: serotonin receptors from calf hippocampus; from tissue; host or cells: calf hippocampus
T1 sequence (F6Q2H9 1-422): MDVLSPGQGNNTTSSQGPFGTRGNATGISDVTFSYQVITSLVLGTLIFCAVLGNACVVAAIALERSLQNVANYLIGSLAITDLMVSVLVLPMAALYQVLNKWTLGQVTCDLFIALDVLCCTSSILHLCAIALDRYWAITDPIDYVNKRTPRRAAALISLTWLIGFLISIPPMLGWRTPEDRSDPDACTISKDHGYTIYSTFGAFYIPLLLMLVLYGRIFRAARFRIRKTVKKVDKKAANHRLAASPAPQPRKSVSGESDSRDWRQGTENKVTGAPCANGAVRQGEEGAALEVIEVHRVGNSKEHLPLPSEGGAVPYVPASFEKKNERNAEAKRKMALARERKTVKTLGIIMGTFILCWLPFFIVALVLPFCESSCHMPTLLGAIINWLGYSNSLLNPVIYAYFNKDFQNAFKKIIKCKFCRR
Description: Serotonin receptor binding (3H-serotonin displacement). Particulars: read-out: Ki (concentration at which 50% of the 3H-serotonin employed is displaced). The source says:
The direct or indirect effect on the serotonergic system by, for example, anxiolytic, tranquillising, neuroleptic or antidepressant active compounds is known. Substances according to the invention interact specifically with serotonin receptors from calf hippocampus. The concentration at which 50% of the ^3 H-serotonin employed is displaced is reported (Ki values). Lit.: Peroutka, S. J. and S. H. Snyder, Molec. Pharmacol. 16, 687, 1979.

The subject of experiment [2] is amphetamine-induced stereotypic behaviour. Description: Amphetamine potentiation. The class given is in vivo. Particulars: ip; rat; i.p.; 2 mg/kg DL-amphetamine sulphate i.v.; read-out: ED50 (dose at which amphetamine-induced behaviour is potentiated by 50%). How it is done:
Substances having antidepressant effects potentiate the amphetamine-inducedstereotypic behaviour of the rat. The ED50 value which is given is the dose at which the behaviour induced after i.v. administration of 2 mg/kg DL-amphetamine sulphate is potentiated by 50%. Lit.: J. L. Howard et al., in: Antidepressants: Neurochemical, Behavioral and Clinical Perspectives, edited by S. J. Enna et al., Raven Press, New York, Pages 107-120, 1981.

Experiment [3] relates to shock-induced aggressive behaviour. Description: Tedeschi test. The class given is in vivo. The note with it: Mus musculus, ip; mice; i.p.; shock-induced aggression; read-out: ED50 (dose at which aggressive behaviour is reduced by 50%). The source says: In mice, anxiolytics bring about a reduction in the shock-induced aggressive behaviour. The ED50 value indicates the dose at which the aggressive behaviour is reduced by 50% within the period of the experiment.
Lit.: Tedeschi et all, J. Pharmacol. Exp. Ther. 129, 28-34, 1954.

Experiment [4] deals with Passive avoidance behaviour. Briefly: Passive avoidance behaviour. In kind it is in vivo. The note with it: Rattus norvegicus, ip; rats; i.p.; electric shock, time to re-entry of darkened box; read-out: ED50 (text: minimum effective dose (MED)). From the text: After entering a darkened box, rats receive an electric shock and thus avoid reentering the box. Rats under the influence of anxiolytics enter the box in spite of having experience the shock. The time up to entry into the box is timed with a stopwatch. The minimum effective dose (MED) in mg/kg is reported.

Another experiment has as its system immobility. Description: Behavioral Despair. In kind it is in vivo. The note with it: Rattus norvegicus, ip; rats; i.p.; glass cylinder filled with water; read-out: ED50 (dose at which immobility is reduced by 50%). The source says:
When placed in a glass cylinder filled with water, rats initially show vigorous swimming movements which alternate with phases of immobility which increase in length. Many antidepressants of a variety of chemical structures shorten the duration of this immobility. The ED50 value indicates the dose of a test substance at which the immobility during the period of the experiment is reduced by 50%.
Lit.: R. D. Porsolt et al., Europ. J. Pharmacol. 47, 379-391, 1978.

Experiment [5] deals with ptosis induced by tetrabenazine. Briefly: Tetrabenazine antagonism. Particulars: Mus musculus, ip; mice; i.p.; tetrabenazine 20 mg/kg i.p.; read-out: ED50 (dose at which tetrabenazine-induced ptosis is reduced to 50%). The class given is in vivo. How it is done:
Antidepressants antagonise the ptosis induced by tetrabenazine in mice. The ED50 value indicates the dose at which the ptosis induced by tetrabenazine (20 mg/kg i.p.) is reduced to 50%. Lit.: J. L. Howard et al., in: Antidepressants; Neuochemical, Behavioral and Clinical Perspectives, edited by S. J. Enna et al., Raven Press, New York, pages 117-120, 1981.

Among the data in patent publication US5314884A, “2-pyrimidinyl-1-piperazine derivatives processes for their preparation and medicaments containing them” (Troponwerke GmbH & Co., priority 1983, dated 1994) are IC50, ED50 and minimal effective dose values, retold here.

Structures can show the parent of a compound that is named as a salt.

Consider `O=C1c2ccccc2C(=O)N1CCCCN1CCN(c2ncccn2)CC1` [Example 1, 2-(4-(4-(2-pyrimidinyl)-1-piperazinyl)butyl)isoindole-1,3(2H)dione], for which the IC50 in experiment [1] came to 10 nM. The ED50 in experiment [2] was determined as 18 mg/kg. Turning to `O=C1c2ccccc2C(=O)N1CCCCN1CCN(c2ncc(-c3ccccc3)cn2)CC1` [Example 4, 2-(4-(4-(5-phenyl-2-pyrimidinyl)-1-piperazinyl)butyl)isoindole-1,3(2H)dion], the median effective dose (ED50) worked out at 20 mg/kg in experiment [3], 3 mg/kg in experiment [2] and 12 mg/kg with immobility. For the same compound, the minimal effective dose in experiment [4] is 1 mg/kg. For `O=C1c2ccccc2C(=O)N1CCCN1CCN(c2ncc(-c3ccccc3)cn2)CC1` [Example 6, 2-(3-(4-(5-Phenyl-2-pyrimidinyl)-1-piperazinyl)propyl)isoindole-1,3(2H)dione], the ED50 in experiment [5] amounted to 40 mg/kg; in experiment [3], 15 mg/kg.

As to `O=C1c2ccccc2S(=O)(=O)N1CCCCN1CCN(c2ncccn2)CC1` [Example 7, 2-(4-(4-(2-Pyrimidinyl)-1-piperazinyl)butyl)-1,2-benzisothiazol-3-(2H)one 1,1-dioxide], the ED50 in experiment [3] is 5 mg/kg. In addition, the minimal effective dose in experiment [4] was 0.5 mg/kg. `O=C1c2ccccc2C(=O)N1CCCCN1CCN(c2ncc(-c3c(F)cccc3Cl)cn2)CC1` [Example 8, 2-(4-(4-(5-(2-Chloro-6-fluorophenyl)-2-pyrimidinyl)-1-piperazinyl)butyl)-isoindole-1,3(2H)dione]: the figures for the ED50 (in experiment [3]; in experiment [2]; in the experiment on immobility) were 12 mg/kg, 1 mg/kg and 33 mg/kg, respectively.

`O=C1c2cc(Cl)ccc2S(=O)(=O)N1CCCCN1CCN(c2ncccn2)CC1` [Example 10]: in experiment [1], the IC50 was 14 nM. For the same compound, in experiment [4], the minimal effective dose amounted to 1 mg/kg.

Consider `O=C1c2ccc(Cl)cc2S(=O)(=O)N1CCCCN1CCN(c2ncccn2)CC1` [Example 11, 2-(4-(4-(2-Pyrimidinyl)-1-piperazinyl)butyl)-6-chloro-1,2-benzisothiazol-3(2H)one 1,1-dioxide], for which the IC50 in experiment [1] worked out at 30 nM. The minimal effective dose in experiment [4] was 1 mg/kg.

On to `COc1ccc(-c2cnc(N3CCN(CCCCN4C(=O)c5ccccc5C4=O)CC3)nc2)cc1OC` [Example 12, 2-(4-(4-(5-(3,4-Dimethoxyphenyl)- -2-pyrimidinyl)-1-piperazinyl)butyl)-isoindole-1,3(2H)dione], for which the 50% effective dose (ED50) worked out at 16 mg/kg in experiment [3] and 50 mg/kg with immobility. Consider `O=C1c2ccccc2C(=O)N1CCN1CCN(c2ncc(-c3ccc(Cl)cc3)cn2)CC1` [Example 15, 1-(2-(4-(5-(4-Chlorophenyl)-2-pyrimidinyl)-1-piperazinyl)ethyl)isoindole-1,3(2H)dione], for which the ED50 in experiment [3] was determined as 6 mg/kg. As to `O=C1c2ccccc2C(=O)N1CC(O)CN1CCN(c2ncc(-c3ccc(Cl)cc3)cn2)CC1` (stereo not drawn) [Example 18, 2-(3-(4-(5-(4-chlorophenyl)-2-pyrimidinyl)-1-piperazinyl)-2-hydroxypropyl)isoindole-1,3(2H)dione], the ED50 in experiment [5] came to 21 mg/kg; in experiment [3], 9 mg/kg. Also, the minimal effective dose in experiment [4] was 1 mg/kg. Take `O=C1Cc2ccccc2C(=O)N1CCCCN1CCN(c2ncccn2)CC1` [Example 19, 2-(4-(4-(2-pyrimidinyl)-1-piperazinyl)butyl)isoquinoline-1,3(2H,4H)dione]: in experiment [1], the IC50 came to 30 nM.

For the compound `COc1ccc(-c2cnc(N3CCN(CCCCN4C(=O)Cc5ccccc5C4=O)CC3)nc2)cc1OC` [Example 20, 2-(4-(4-(5-(3,4-Dimethoxyphenyl)-2-pyrimidinyl)-1-piperazinyl)butyl)-isoquinoline-1,3(2H,4H)dione], the ED50 in experiment [2] was determined as 5 mg/kg. For `O=C1c2ccc([N+](=O)[O-])cc2S(=O)(=O)N1CCCCN1CCN(c2ncccn2)CC1` [Example 24, 2-(4-(4-(2-Pyrimidinyl)-1-piperazinyl)butyl)-6-nitro-1,2-benzisothiazol-3(2H)one 1,1-dioxide], the IC50 in experiment [1] was determined as 20 nM. For the compound `O=C1Nc2ccccc2S(=O)(=O)N1CCCN1CCN(c2ncccn2)CC1` [Example 32, 2-(3-(4-(2-Pyrimidinyl)-1-piperazinyl)propyl)1,2,4-benzothiadiazin-3(4H)on 1,1-dioxide], the IC50 in experiment [1] was 10 nM. Same read-out and setting: next, `O=C1Nc2ccccc2S(=O)(=O)N1CCCCN1CCN(c2ncccn2)CC1` [Example 33, 2-(4-(4-(2-Pyrimidinyl)-1-piperazinyl)butyl)-1,2,4-benzothiadiazin-3(4H)one 1,1-dioxide]: 60 nM. Same read-out and setting: then `CN1C(=O)N(CCCN2CCN(c3ncccn3)CC2)S(=O)(=O)c2ccccc21` [Example 36, 2-(3-(4-(2-Pyrimidinyl)-1-piperazinyl)propyl)-4-methyl-1,2,4-benzothiadiazin-3(4H)one 1,1-dioxide], with 9 nM; and `CN1C(=O)N(CCCCN2CCN(c3ncccn3)CC2)S(=O)(=O)c2ccccc21` [Example 37, 2-(4-(4-(2-Pyrimidinyl)-1-piperazinyl)butyl)-4-methyl-1,2,4-benzothiadiazin-3(4H)one 1,1-dioxide], with 80 nM.

On to `NCCCCN1CCN(c2ncc(-c3ccccc3)cn2)CC1` [Example 49, 1-(4-aminobutyl)-5-(5-phenyl-2-phenyl-2-pyrimidinyl)piperazine], for which, in experiment [2], the ED50 stood at 3 mg/kg. `NCCCCN1CCN(c2ncc(-c3c(F)cccc3Cl)cn2)CC1` [Example 50, 1-(4-Aminobutyl)-4-(5-(2-fluoro-6-chlorophenyl)-2-pyrimidinyl)piperazinehydrochloride]: the ED50 in experiment [3] came out at 32 mg/kg; in experiment [2], 3 mg/kg.

As for `CCOC(=O)N1CCN(c2ncc(-c3ccccc3)cn2)CC1` [Example 54, ethyl 4-(5-phenyl-2-pyrimidinyl)-1-piperazinecarboxylate], the ED50 in experiment [3] came out at 10 mg/kg; in experiment [2], 0.4 mg/kg; with immobility, 20 mg/kg. For the same compound, the minimal effective dose in experiment [4] was determined as 5 mg/kg. As to `c1ccc(-c2cnc(N3CCNCC3)nc2)cc1` [Example 60, 1-(5-phenyl-2-pyrimidinyl)piperazine], the ED50 in experiment [5] was 5 mg/kg; in experiment [2], 16 mg/kg. In the case of `Fc1cccc(Cl)c1-c1cnc(N2CCNCC2)nc1` [Example 61, 1-(5-(2-Fluoro-6-chlorophenyl)-2-pyrimidinyl)piperazine], the ED50 in experiment [2] is 5 mg/kg.

Turning to `c1ccc2c(-c3cnc(N4CCNCC4)nc3)c[nH]c2c1` [Example 64, 1-(5-(3-Indolyl)-2-pyrimidinyl)piperazine], the ED50 in experiment [5] was determined as 18 mg/kg; in experiment [2], 2 mg/kg.

The term ED50 denotes the dose at which the effect has come halfway, by size or by number of responders.
